These results are taken from patent publication US20050222408A1, “Heterocyclic amides with anti-tuberculosis activity” (priority 2003, published 2005).

Each structure is given as a SMILES string. Values after ≈ are worked out from the molar mass of the structure shown. “Also recorded” adds a separate entry of the source. Read-outs that look alike come from different tables or passages of the source.

The subject of one data set is Vero cells. Kind of data set: Cytotoxicity, alamar blue assay against Vero cells. The following applies: for ToxIC50: unit not given; for IC50: Chlorocebus sabaeus, read-out: ToxIC50; for selectivity index (SI): summary b276. Format: cell-based. On the technique in general: The colour change of resazurin is a common sign of viable cells or microbes.
In data set [1] the target is UDP-galactose mutase (Glf) (Mycobacterium tuberculosis, UniProt P9WIQ1). Kind of data set: Microtitre plate based screen of Glf (enzymatic inhibition). Format: biochemical.
Sequence of UDP-galactose mutase (Glf) (P9WIQ1 whole entry): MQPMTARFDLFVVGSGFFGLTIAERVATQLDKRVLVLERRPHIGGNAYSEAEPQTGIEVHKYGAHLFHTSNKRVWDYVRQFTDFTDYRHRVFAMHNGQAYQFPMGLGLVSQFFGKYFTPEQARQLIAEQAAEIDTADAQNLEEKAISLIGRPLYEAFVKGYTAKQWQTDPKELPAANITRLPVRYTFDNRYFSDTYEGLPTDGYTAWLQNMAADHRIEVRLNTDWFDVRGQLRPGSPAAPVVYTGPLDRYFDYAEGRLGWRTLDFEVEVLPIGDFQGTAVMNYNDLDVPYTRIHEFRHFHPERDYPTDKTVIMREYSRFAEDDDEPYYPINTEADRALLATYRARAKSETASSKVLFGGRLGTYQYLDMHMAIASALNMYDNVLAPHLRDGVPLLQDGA
Data set [2] in a line: Maximum Tolerated Dose (MTD), single oral dose in mice. The following applies: escalating dose 100, 300 and 500 mg/kg by oral gavage. Here is the method:
An assay for Maximum Tolerated Dose (MTD) was also utilized. […] Three different concentrations are tested, generally at 100, 300 and 500 mg/kg. The latter dose is about twice to five times the dose used for efficacy testing of the compound in mice. After 7 days of observation the mice are sacrificed and the organs are studied for any adverse effects. In case of abnormalities the organs are fixed in formalin and given for extensive pathology analysis.
Maximum tolerated dosing was performed on these selected compounds. An escalating dose of drug (100, 300 and 500 mg/kg) was given to mice by oral gavage.

A further data set concerns M. tuberculosis. In kind it is in vivo, mice. The following applies: for viable M. tuberculosis, Spleen ± SEM: untreated controls 6.7 ± 0.16; for viable M. tuberculosis, Lungs ± SEM: untreated controls 8.0 ± 0.17.
The next data set relates to M. tuberculosis H37Ra. Put plainly: MIC against M. tuberculosis H37Ra, micro broth dilution in microtiter plates. The following applies: M. tuberculosis H37Ra; for TB MIC: Table 1; for TB MIC / MIC: 7 days at 37° C., MIC90; for MIC: Mycobacterium tuberculosis, H37RA, 168 h, read-out: TB MIC, Table 1. For orientation: Broth dilution looks for growth in wells or tubes with falling amounts of substance.

Where [3] appears, read: Table 1, Vero cells, alamar blue.
Setting [4] is: Table 1, Vero cells, alamar blue, unit inferred.

Take `O=C(Nc1cccc(Cl)c1)c1ccc([N+](=O)[O-])o1` [Compound 10, 5-Nitro-furan-2-carboxylic acid(3-chloro-phenyl)-amide]: the ToxIC50 with Vero cells (setting [3]) is given as 6.86. The “Glf inhibition” value in data set [1] is “best inhibitors of Glf”. For the same molecule, the “Maximum tolerated dosing, effect observed” value (shortened to “Maximum tolerated dosing”) in data set [2] was “no effect at the maximum dose”. Also, in the data set on M. tuberculosis (300 mg/kg), the “viable M. tuberculosis, Spleen ± SEM” value is listed as 7.3 ± 0.12 and the “viable M. tuberculosis, Lungs ± SEM” value worked out at 8.3 ± 0.21.

The molecule `O=C(Nc1cccc(F)c1)c1ccc([N+](=O)[O-])o1` [Compound 12, 5-Nitro-furan-2-carboxylic acid(3-fluoro-phenyl)-amide] had a ToxIC50 in the data set on Vero cells (setting [3]) of 9.29. The “Maximum tolerated dosing” value in data set [2] is “no effect at the maximum dose”. In the data set with M. tuberculosis (300 mg/kg), the “viable M. tuberculosis, Spleen ± SEM” value is reported as 7.0 ± 0.11 and the “viable M. tuberculosis, Lungs ± SEM” value was determined as 8.4 ± 0.24. Also, the “TB MIC” value in the data set on M. tuberculosis H37Ra was 0.8 µg/mL.

In the data set on Vero cells (setting [3]), `COc1cccc(NC(=O)c2ccc([N+](=O)[O-])o2)c1` [Compound 13, 5-Nitro-furan-2-carboxylic acid(3-methoxy-phenyl)-amide] came in with a ToxIC50 of 18.63. Further, the “Glf inhibition” value in data set [1] is “best inhibitors of Glf”. In addition, in data set [2], the “Maximum tolerated dosing” value is “some pathology at 500 mg/kg”. In the data set on M. tuberculosis (150 mg/kg), the “viable M. tuberculosis, Spleen ± SEM” value came out at 7.2 ± 0.07 and the “viable M. tuberculosis, Lungs ± SEM” value was 8.0 ± 0.3. In addition, the “TB MIC” value with M. tuberculosis H37Ra is 0.8 µg/mL.

`COc1ccc(CNC(=O)c2ccc([N+](=O)[O-])o2)c(OC)c1` [Compound 22, 5-Nitro-furan-2-carboxylic acid 2,4-dimetboxy-benzylamide] returned a ToxIC50 in the data set with Vero cells (setting [3]) of 5.38. Also, the “TB MIC” value in the data set with M. tuberculosis H37Ra was determined as 0.4 µg/mL.

Regarding `COc1ccc(CNC(=O)c2ccc([N+](=O)[O-])o2)cc1OC` [Compound 23, 5-Nitro-furan-2-carboxylic acid 3,4-dimethoxy-benzylamide], the IC50 in the data set on Vero cells (Vero) came out at 18.2 µg/mL (≈ 59.3 µM). Moreover, the “selectivity index (SI)” value in the data set on Vero cells was 90.9. Further, the “Maximum tolerated dosing” value in data set [2] is reported as “no effect at the maximum dose”. In the data set with M. tuberculosis (300 mg/kg), the “viable M. tuberculosis, Spleen ± SEM” value is on record as 6.0 ± 0.19 and the “viable M. tuberculosis, Lungs ± SEM” value is 6.5 ± 0.25. For the same molecule, in the data set with M. tuberculosis (oral), the “oral activity against M. tuberculosis in the mouse infection model” value is “significant oral activity”. Further, the “anti-tuberculosis MIC activity” value with M. tuberculosis H37Ra was “as active as ethambutol and streptomycin”.

As a reminder, the MIC is the lowest concentration found to suppress growth. As for `COc1ccc(CCNC(=O)c2ccc([N+](=O)[O-])o2)cc1` [Compound 28, 5-Nitro-furan-2-carboxylic acid [2-(4-methoxy-phenyl)-ethyl]-amide], the IC50 in the data set on Vero cells (Vero) came out at 20.4 µg/mL (≈ 70.5 µM). Besides, the minimal inhibitory concentration (MIC) with M. tuberculosis H37Ra is 0.8 µg/mL (≈ 2.76 µM).

Regarding `CC(NC(=O)c1ccc([N+](=O)[O-])o1)c1ccccc1` (stereo not shown) [Compound 29, 5-Nitro-furan-2-carboxylic acid(1-phenyl-ethyl)-amide], the ToxIC50 in the data set on Vero cells (setting [3]) worked out at 25.63. Also, the “TB MIC” value in the data set with M. tuberculosis H37Ra worked out at 1.6 µg/mL.

In turn, `CC(NC(=O)c1ccc([N+](=O)[O-])o1)c1ccccc1` (stereo not shown) [Compound 30, 5-Nitro-furan-2-carboxylic acid(1-phenyl-ethyl)-amide] had a ToxIC50 in the data set with Vero cells (setting [3]) of 23.59. Also, the “TB MIC” value in the data set on M. tuberculosis H37Ra came out at 3.1 µg/mL.

Consider `COc1ccc(CCNC(=O)c2ccc([N+](=O)[O-])o2)cc1OC` [Compound 31, 5-Nitro-furan-2-carboxylic acid [2-(3,4-dimethoxy-phenyl)-ethyl]-amide], for which the IC50 with Vero cells (Vero) stood at 27.4 µg/mL (≈ 85.7 µM). Also, in the data set on M. tuberculosis H37Ra, the MIC worked out at 0.4 µg/mL (≈ 1.25 µM).

With `COc1cccc(NC(=O)c2ccc(Br)o2)c1` [Compound 33, 5-Bromo-furan-2-carboxylic acid(3-methoxy-phenyl)-amide], in the data set with Vero cells (setting [4]), the IC50 was 61.2 µg/mL (≈ 207 µM). For the same molecule, the MIC in the data set with M. tuberculosis H37Ra stood at 100 µg/mL (≈ 338 µM).

Turning to `COc1cccc(NC(=O)c2ccc(Sc3ccccc3)o2)c1` [Compound 36, 5-Phenylsulfanyl-furan-2-carboxylic acid(3-methoxy-phenyl)-amide], the IC50 with Vero cells (setting [4]) amounted to 25.7 µg/mL (≈ 79 µM). Further, the MIC with M. tuberculosis H37Ra is 25 µg/mL (≈ 76.8 µM).

Regarding `O=C(NCc1ccc(N2CCN(Cc3ccccc3)CC2)cc1)c1ccc([N+](=O)[O-])o1` [Compound 66, 5-Nitro-furan-2-carboxylic acid 4-(4-benzyl-piperazin-1-yl)-benzylamide], the “selectivity index (SI)” value with Vero cells was found to be 1597. In addition, in the data set on M. tuberculosis H37Ra, the “anti-tuberculosis MIC activity” value was “extremely potent; also recorded: more active than isoniazid”.

In the case of `NNC(=O)c1ccncc1` [Isoniazid, reference compound], in the data set on M. tuberculosis (25 mg/kg), the “viable M. tuberculosis, Spleen ± SEM” value turned out to be 3.2 ± 0.21 and the “viable M. tuberculosis, Lungs ± SEM” value is listed as 5.5 ± 0.21.

Regarding `Cc1ncc([N+](=O)[O-])n1CCO` [Metronidazole, reference compound], in the data set on M. tuberculosis (150 mg/kg), the “viable M. tuberculosis, Spleen ± SEM” value is listed as 6.9 ± 0.04 and the “viable M. tuberculosis, Lungs ± SEM” value turned out to be 8.5 ± 0.18.
